The values that follow come from paper PMC5471252, “Anti-leukemia activity of a Hsp70 inhibitor and its hybrid molecules” (Scientific Reports, 2017).

Test [1] concerns caspase activity of HL-60 and K562 cells. Description: Caspase activity assay with Ac-DEVD-pNA in cell lysates. The class given is cell-based, human. The conditions noted are these: lysates of cells treated 24 h. The method, then:
Because Az inhibits the association of Hsp70 with Apaf-1, caspase associated proteolytic activities should increase in cells treated with Az. To determine whether this event occurs, caspase activities of HL-60 and K562 cells treated with Az were measured by using the colorimetric substrate, Ac-DEVD-pNA (pNA, p-nitroaniline). […] We also examined whether leukemia cells are protected from the effect of Az by ZVAD-FMK (benzyloxycarbonyl-Val-Ala-Asp(OMe) fluoromethyl ketone, a cell-permeable inhibitor of pan-caspases). HL-60 and K562 cells were pre-incubated with ZVAD-FMK for 3 h and subsequently exposed to Az.
HL-60 and K562 cells treated with each compound for 24 h were lysed in a buffer containing 50 mM HEPES (pH 7.4), 5 mM CHAPS and 5 mM DTT. Assay buffer containing 20 mM HEPES (pH 7.4), 0.01% CHAPS, 5 mM DTT and 2 mM EDTA was added to cell lysates. Caspase activity was measured in the absence or presence of acetyl-DEVD-pNA (200 μM) (Sigma-Aldrich) by using a microplate reader (monitored at 405 nm).

The target in test [2] is T1, ATPase domain (1-386 residues) of human Hsc70 (Homo sapiens, UniProt P11142).
T1 construct: pET28a-human Hsc70 ATPase domain (1-386 residues); inferred from the pET28a vector and nickel-column purification; made in house; host or cells: E. coli BL21 (DE3)
T1 sequence (P11142 1-386): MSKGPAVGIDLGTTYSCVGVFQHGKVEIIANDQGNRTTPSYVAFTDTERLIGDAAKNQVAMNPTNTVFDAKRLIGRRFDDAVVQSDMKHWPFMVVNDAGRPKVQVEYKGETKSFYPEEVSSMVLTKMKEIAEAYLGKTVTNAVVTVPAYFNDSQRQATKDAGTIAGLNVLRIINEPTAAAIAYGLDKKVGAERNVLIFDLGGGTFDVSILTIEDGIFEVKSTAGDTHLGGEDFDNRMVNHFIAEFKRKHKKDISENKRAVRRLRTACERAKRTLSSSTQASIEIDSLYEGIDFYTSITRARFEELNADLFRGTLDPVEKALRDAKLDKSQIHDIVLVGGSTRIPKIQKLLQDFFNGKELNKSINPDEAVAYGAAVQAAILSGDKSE
The test is described as follows: STD NMR competition with ATP-γ-S. Conditions: ATP-γ-S in place of ATP, Az phosphate salt form. The class given is binding. The method, then: However, the detailed mode of Az binding to the proteins has not been elucidated. To gain information about the molecular basis of Az binding to Hsp70 proteins, NMR studies were carried out on a complex of Az with an ATPase domain (1-386 residues) of human Hsc70. Saturation transfer difference (STD) NMR studies were conducted initially to obtain information on Az binding to the ATPase domain of Hsc70[30]. […] Next, we evaluated whether Az affects binding of ATP to the ATPase domain. For STD experiments, less hydrolytic ATP-γ-S was used in place of ATP.
For STD experiments, 10 μM of an ATPase domain of Hsc70, 1 mM of ATP-γ-S and Az (a phosphate salt form) were used. For competition studies between ATP-γ-S and Az, STD of the sample with 5 μM ATPase domain of Hsc70 and 500 μM ATP-γ-S was initially measured, and further titrated with Az up to 1 mM. The ratios of ATP-γ-S to Az were 1:0, 1:1, 1:1.5, and 1:2. All STD NMR spectra were obtained using 20 mM solutions of deuterated Tris buffer with 5% (v/v) DMSO-d6 (pD 7.2).

Test [3] deals with T2, interaction of Hsp70 with Apaf-1 in HL-60 and K562 cells (Homo sapiens, UniProt P0DMV8).
T2 construct: endogenous in cells; host or cells: HL-60 and K562 cells
T2 sequence (P0DMV8 whole entry): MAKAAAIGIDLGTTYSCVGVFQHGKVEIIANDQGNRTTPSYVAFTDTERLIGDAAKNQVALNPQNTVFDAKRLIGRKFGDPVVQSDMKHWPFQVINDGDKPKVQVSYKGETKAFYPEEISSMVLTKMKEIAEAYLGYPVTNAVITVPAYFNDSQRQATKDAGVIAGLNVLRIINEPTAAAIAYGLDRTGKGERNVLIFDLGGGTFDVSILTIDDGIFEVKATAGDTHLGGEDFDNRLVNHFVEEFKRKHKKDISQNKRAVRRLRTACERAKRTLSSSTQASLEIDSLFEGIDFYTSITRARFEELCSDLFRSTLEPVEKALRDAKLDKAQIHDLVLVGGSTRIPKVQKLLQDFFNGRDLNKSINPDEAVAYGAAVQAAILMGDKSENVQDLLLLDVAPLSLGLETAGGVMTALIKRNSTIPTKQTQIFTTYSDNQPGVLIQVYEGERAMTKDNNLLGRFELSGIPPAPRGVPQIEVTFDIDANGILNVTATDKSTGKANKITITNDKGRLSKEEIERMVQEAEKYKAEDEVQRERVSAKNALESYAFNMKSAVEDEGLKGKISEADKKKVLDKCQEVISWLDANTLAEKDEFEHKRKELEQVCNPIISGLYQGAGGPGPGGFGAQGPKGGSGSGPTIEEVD
Description: Immunoprecipitation of Hsp70/Apaf-1 complex with Hsp70 antibody. It is filed as cell-based. Conditions: cells treated 24 h, co-immunoprecipitation. As for the experimental part:
With this information in mind, we tested if Az enhances the cytochrome c release from mitochondria into the cytosol in leukemia cells. The levels of cytochrome c in cytosolic and mitochondrial fractions of HL-60 and K562 cells after treatment with Az were determined by using western blot analysis. […] We next determined if the binding of Hsp70 to Apaf-1 is suppressed by Az during apoptosis. For this purpose, HL-60 and K562 cells were exposed to Az, and a complex of Hsp70 and Apaf-1 was then immunoprecipitated with Hsp70 antibody.
Supplementary Figure S9. Az blocks association of Hsp70 with Apaf-1. (a) HL-60 and K562 cells were treated with Az for 24 h, and the amount of Hsp70, Hsc70 and Apaf-1 was measured by western blot. […] (b) HL-60 and K562 cells were treated with Az for 24 h. Immunoprecipitation was performed with a Hsp70 antibody, and the amount of co-precipitated Apaf-1 was determined by western blot.

Test [4] deals with KG-1 cells. Description: MTT assay, cell viability of KG-1 cells. The class given is cell-based. Conditions: Homo sapiens, 48 h, mean ± s.d., n = 3, read-out: IC50 values of compounds for leukemia cells.
Test [5] has as its system Hsp70 level in HL-60 and K562 cells. Description: Western blot of Hsp70 and Hsp90 levels. It is filed as cell-based, human. The conditions noted are these: cells treated 24 h. As for the experimental part: Because Az-O3-GD promotes caspase activation in leukemia cells, it was anticipated that procaspase-9, procaspase-3 and PARP would be cleaved in treated cells. To test this possibility, HL-60 and K562 cells were exposed to Az-O3-GD, along with Az and GD as controls and western blot analysis was then carried out. […] Although Az-O3-GD upregulates Hsp70, the presence of the Hsp70 inhibitor in this hybrid causes its cytotoxicity against leukemia cells to be higher than that of GD. Finally, we examined the effect of Az-O3-GD on AIF-mediated caspase-independent apoptosis. To this end, HL-60 and K562 cells were incubated with Az-O3-GD for 24 h.
Western blot analysis. […] peroxidase-conjugated goat anti-rabbit IgG (1:2000, Santa Cruz Bio Technology) and goat anti-mouse IgG (1:2000, Santa Cruz Bio Technology) were used as the secondary antibodies. The blots were developed by using a West-ZOL® plus Western Blot Detection System (Intron Biotechnology Inc., South Korea). Western blot signals were analyzed by using a G:BOX Chemi Fluorescent & Chemiluminescent Imaging System.
On the technique in general: In western blotting, separated proteins are transferred to a membrane and probed.

The subject of test [6] is Jurkat cells. The test is described as follows: MTT assay, cell viability of Jurkat cells. The class given is cell-based. The conditions noted are these: Homo sapiens, 48 h, mean ± s.d., n = 3, read-out: IC50 values of compounds for leukemia cells.

One may read the IC50 as the concentration that gives 50% inhibition. As to `COc1ccc(-c2nc(-c3cc(C(F)(F)F)cc(C(F)(F)F)c3)n(Cc3ccc(C(=O)NCCOCCOCCN)cc3)c2-c2ccc(OC)cc2)cc1` [Az, apoptozole], the “caspase activity of treated cells” value in test [1] is recorded as “increase”. Besides, the “effect on binding of ATP to the ATPase domain” value in test [2] is listed as “blocks ATP binding”. Besides, the “interaction of Hsp70 with Apaf-1” value in test [3] was “inhibits the interaction of Hsp70 with Apaf-1”. The IC50 in test [4] was determined as 3.3 ± 0.71 µM; in test [6], 3.1 ± 0.61 µM. Further, the “translational level of Hsp70” value in test [5] was “does not affect the translational levels of Hsp70 and Hsp90”.
